Laboratory results from publication PMC7841069, “Identification of Chalcone Derivatives as Inhibitors of Leishmania infantum Arginase and Promising Antileishmanial Agents” (Frontiers in Chemistry, 2021).
Like-named read-outs stand apart in the source and are kept apart here.

Columns and labels:
Cytotoxicity assay (MTT) = format: cell-based; details: mouse, read-out: RAW 264.7 CC50 ± SE
Procedure: (§1) RAW 264.7 macrophages were cultured in DMEM medium (Sigma-Aldrich, USA) supplemented with 10% fetal bovine serum at 37°C in 5% CO2 atmosphere. Cells were plated on 96-well microplates at a density of 10^5 cells/well and incubated at 37°C in 5% CO2 for 2 h. After this period, increasing concentrations of inhibitors (0.9–4,307 μM) were added and the cultures were incubated at 37°C in 5% CO2 for 48 h. Subsequently, cell viability was measured by a colorimetric assay using 3-(4,5-dimethylthiazol-2-yl)-2,5-diphenyl tetrazolium bromide (MTT) (Sigma-Aldrich, USA). MTT was added to the culture medium at a final concentration of 1.0 mg/mL, and cultures were incubated at 37°C in 5% CO2 for 3 h. MTT was transformed by the living cells in formazan crystals that were dissolved in DMSO. The concentration of formazan was measured spectrophotometrically at 570 nm (SpectraMax M5, Molecular Devices, CA). The 50% cytotoxic concentration (CC50) values were determined by the nonlinear regression fits of the dose-response curves using GraphPad Prism 8.0. All measurements were performed in triplicates, twice independently.

[1] = system: Leishmania infantum promastigotes; assay: Activity against Leishmania infantum promastigotes (resazurin); format: cell-based; details: for Selectivity Index PRO: CC50 host cell / IC50 promastigotes; for IC50: Leishmania infantum, read-out: Promastigotes IC50 ± SE
Procedure: Promastigotes of Leishmania infantum strain MHOM/BR/1974/PP75 were cultured in Schneider's medium supplemented with 10% fetal bovine serum at 26°C. First, the selected LiARG inhibitors were diluted in culture medium at concentrations ranging from 2.9 to 1,723.0 μM. Then, late-exponential phase (after 96 h growth) L. infantum promastigotes, at a final density of 10^5 parasites/mL, were incubated with previously diluted inhibitors at 26°C for 96 h. Subsequently, parasite viability was determined by a colorimetric assay using resazurin (Sigma-Aldrich, USA). Resazurin was added to the culture medium at a final concentration of 0.001% (w/v), and cultures were further incubated at 26°C for 4 h (Rólon et al., [2006]). Resazurin is reduced to resorufin by living cells, and the relative concentration of resorufin/resazurin was measured spectrophotometrically at 570/600 nm (SpectraMax M5, Molecular Devices, CA), respectively. Fungizone® (2.0–650.0 nM) was used as the reference drug. The 50% inhibitory concentration (IC50) values were determined by the nonlinear regression fits of the dose-response curves using GraphPad Prism 8.0. All measurements were performed in triplicates, twice independently.
(§2) The selectivity index for promastigotes and intracellular amastigotes of L. infantum was calculated by taking the ratio between the CC50 obtained for the host cell and the IC50 obtained for the parasite. Inhibitors displaying selectivity index > 10 were considered low cytotoxic (Katsuno et al., [2015]).

[2] = system: Leishmania infantum intracellular amastigotes; assay: Activity against intracellular amastigotes (promastigote recovery assay); format: cell-based; details: for Selectivity Index AMA: CC50 host cell / IC50 intracellular amastigotes
Procedure: (§3) Intracellular anti-amastigote activity was determined using the promastigote recovery assay with minor modifications (Ferreira et al., [2017]). RAW 264.7 macrophages were plated on 96-well microplates at a density of 10^5 cells/well and incubated at 37°C in 5% CO2 for 2 h. After this period, adherent cells were washed twice with phosphate buffered saline (PBS, pH 7.2) and infected with stationary-phase L. infantum promastigotes at a 10:1 parasite/macrophage ratio. After 4 h of infection at 37°C in 5% CO2, free parasites were removed by a wash step with PBS and infected macrophages were incubated for an additional 24 h to allow parasite differentiation into amastigotes. Then, infected cells were treated with increasing concentrations of selected LiARG inhibitors (11.0–54.0 μM) for 48 h. After this period, the culture supernatant was collected for the evaluation of NO production by the Griess reaction (Misko et al., [1993]), and cells were washed with PBS. Subsequently, PBHIL medium supplemented with 5% fetal bovine serum was added and the cultures were incubated at 26°C for 72 h to recover L. infantum promastigotes. Only viable amastigotes can differentiate into promastigotes. Then, parasite viability was determined by a colorimetric assay using MTT (1.0 mg/mL) (Sigma-Aldrich, USA), as described earlier. Fungizone® (130–540 nM) was used as the reference drug. Results were expressed as percentages of viability in relation to the control (100% viability). The 50% inhibitory concentration (IC50) values were determined by the nonlinear regression fits of the dose-response curves using GraphPad Prism 8.0. All measurements were performed in triplicates, twice independently.
as §2

[3] = system: L. infantum-infected macrophages; assay: NO production by L. infantum-infected macrophages (Griess reaction); format: cell-based; details: 11–54 μM, 48 h, vs untreated control
Procedure: as §3
Figure 4 Effect of chalcone derivatives on the production of nitric oxide by L. infantum-infected macrophages. L. infantum-infected macrophages were treated with increasing concentrations of (A–D) chalcone derivatives (11–54 μM) or (E) the reference drug fungizone (0.13–0.54 μM) and nitrite concentration was measured by the Griess reaction. Control represents the amount of nitric oxide produced by L. infantum-infected macrophages in the absence of any treatment. Statistical analysis of the differences between mean values obtained for the experimental groups was done by ANOVA with Tukey's post hoc test.

RAW 264.7 macrophages [4] = system: RAW 264.7 macrophages; design: method as in Ventura et al. (2015); details: ref Ventura et al. (2015), read-out: IC50 for NO; cited from earlier work
RAW 264.7 macrophages [5] = assay: Cytotoxicity assay (MTT); format: cell-based; details: 48 h
Procedure: as §1

[6] = system: Leishmania infantum arginase (LiARG); assay: LiARG enzyme inhibition assay (urea formation, UREA CE kit); format: biochemical; details: 100 μM inhibitor; control without inhibitor = 100% activity
Procedure: LiARG expression and purification was performed as described previously (Garcia et al., [2019]). Escherichia coli BL21 (DE3) cells were transformed with RP1B-LiARG. Cells were grown at 37°C until mid-exponential phase (Abs600 ~ 0.6). Protein expression was induced with 1 mM IPTG and cells were grown for 16 h at 30°C. Cells were harvested by centrifugation, resuspended in lysis buffer [50 mM Tris-HCl (pH 8.0), 500 mM NaCl, 5 mM imidazol, 0.1% Triton-X 100, 250 μM PMSF, 10 mM β-mercaptoethanol] and lysed by sonication (15 cycles 60 s on and 60 s off, 100 W). The cell lysate was centrifuged (8,000 X g, 40 min, 4°C), and the clarified supernatant was loaded onto a His-Trap HP column (GE Healthcare, USA). A wash step with 100 mM manganese chloride was carried out for enzyme activation. LiARG was eluted with an imidazole gradient ranging from 5 to 500 mM. […] LiARG activity was measured using the UREA CE kit (Labtest, Brazil). Urea concentration was determined spectrophotometrically (SpectraMax M5, Molecular Devices, CA) by hydrolyzing urea into ammonia and then converting ammonia into indophenol blue, which absorbs light at 600 nm ([…] and Scott, [1960]). Enzyme activity was measured with 0.2 μg/mL LiARG incubated with 50 mM L-arginine in 50 mM CHES (pH 9.5) at 37°C for 5 min. […] The results are expressed as percentage of LiARG activity taking the enzymatic activity of the control as 100%. […]

[7] = system: Leishmania amazonensis arginase (LaARG); design: method as in da Silva et al. (2019); details: 100 μM; ref da Silva et al. (2019); cited from earlier work
[8] = Leishmania infantum, Macrophage, 48 h, infected macrophages treated 48 h, promastigote recovery, MTT, read-out: Amastigotes IC50 ± SE

Structure (SMILES)	CC50 at 48 h (Cytotoxicity assay (MTT); RAW 264.7 macrophages) [µM]	Selectivity Index PRO [1]	IC50 ([1]; 96 h, resazurin) [µM]	Selectivity Index AMA [2]	IC50 [2, 8] [µM]	production of NO by L. infantum-infected macrophages [3]	other results
COc1ccc(/C=C/C(=O)c2ccccc2Cl)cc1 [LC34]	3010	4.0	747 ± 22.3	46.0	65.4 ± 10.9	no significant difference to the untreated control	–
COc1ccc(C(=O)C=Cc2ccc([N+](=O)[O-])cc2)cc1 [LC41, 1-(4-Methoxyphenyl)-3-(4-Nitrophenyl)-2-Propen-1-one]	1150	3.6	319 ± 14.3	26.2	70.4 ± 9.6	significantly decreased	IC50 ([2]; infected macrophages treated 48 h, promastigote recovery, MTT, read-out: Amastigotes IC50 ± SE): 43.7 ± 13.7 µM; IC50 (RAW 264.7 macrophages [4]): 13.5 ± 5.5 µM
O=C(c1ccccc1)C(C(O)c1ccccc1Cl)C(O)c1ccccc1Cl (stereo not shown) [LC37, 3-hydroxy-2-[-hydroxy(2-Chlorophenyl)methyl]-3-(2-Chlorophenyl)-1-phenyl-1-Propanone]	> 4000	–	> 1500	–	–	–	RAW 264.7 CC50 ± SE (RAW 264.7 macrophages [5]): did not inhibit the growth of RAW 264.7 macrophages at the highest concentration tested; Promastigotes IC50 ± SE ([1]; 96 h, resazurin): did not display in vitro activity
O=c1c(O)c(-c2ccc(O)c(O)c2)oc2cc(O)cc(O)c12 [quercetin]	–	–	–	–	–	–	ARGLi inhibition (%) (100 μM) [6]: 67.1 ± 10.3%
O=C(C=Cc1ccc([N+](=O)[O-])cc1)c1ccc(Br)cc1 [LC39, 1-(4-Bromophenyl)-3-(4-Nitrophenyl)-2-Propen-1-one]	–	11.4	–	107.1	–	no significant difference to the untreated control	CC50 at 48 h (Cytotoxicity assay (MTT)): 4530 ± 212 µM; IC50 ([1]; 96 h): 398 ± 44.2 µM; IC50 ([2]; Leishmania infantum, Macrophage, 48 h, read-out: Amastigotes IC50 ± SE, infected macrophages treated 48 h, promastigote recovery, MTT): 55.2 ± 3.8 µM; IC50 ([2]; read-out: Amastigotes IC50 ± SE, infected macrophages treated 48 h, promastigote recovery, MTT): 42.3 ± 17.1 µM
COc1ccc(C=CC(=O)c2ccc(Br)cc2)cc1OC [LC14, 1-(4-bromophenyl)-3-(3,4-dimethoxyphenyl)-2-Propen-1-one]	75.1 ± 8.9	<1	283 ± 14.2	–	–	–	IC50 (RAW 264.7 macrophages [4]): 58.9 ± 6.8 µM
O=C(C=Cc1ccc(F)cc1)c1ccccc1Cl [LC32, 1-(2-Chlorophenyl)-3-(4-fluorophenyl)-2-Propen-1-one]	479 ± 19.5	6.5	74.1 ± 10.9	4.3	112 ± 19.8	significantly decreased	–
O=C1c2c(O)cc(O)cc2OC(c2ccc(O)c(O)c2)C1O (stereo not shown) [taxifolin]	–	–	–	–	–	–	LaARG inhibition [7]: 88%
